What was measured:
[1] = biological target: T1, RSK2 (90 kDa ribosomal protein S6 kinase 2) (Homo sapiens, UniProt P51812); assay: radiometric […]-ATP kinase assay with KKLNRTLSVA peptide, P81 filter; assay type: biochemical
T1 construct: gene RPS6KA3

[2] = biological target: T2, RSK1 (90 kDa ribosomal protein S6 kinase 1; MAPKAP-K1α) (Rattus norvegicus, UniProt Q63531); assay: radiometric […]-ATP kinase assay with KKLNRTLSVA peptide, P81 filter; also […] inhibition at […] in kinase panel; assay type: biochemical
T2 construct: gene Rps6ka1
T2 sequence (Q63531 whole entry): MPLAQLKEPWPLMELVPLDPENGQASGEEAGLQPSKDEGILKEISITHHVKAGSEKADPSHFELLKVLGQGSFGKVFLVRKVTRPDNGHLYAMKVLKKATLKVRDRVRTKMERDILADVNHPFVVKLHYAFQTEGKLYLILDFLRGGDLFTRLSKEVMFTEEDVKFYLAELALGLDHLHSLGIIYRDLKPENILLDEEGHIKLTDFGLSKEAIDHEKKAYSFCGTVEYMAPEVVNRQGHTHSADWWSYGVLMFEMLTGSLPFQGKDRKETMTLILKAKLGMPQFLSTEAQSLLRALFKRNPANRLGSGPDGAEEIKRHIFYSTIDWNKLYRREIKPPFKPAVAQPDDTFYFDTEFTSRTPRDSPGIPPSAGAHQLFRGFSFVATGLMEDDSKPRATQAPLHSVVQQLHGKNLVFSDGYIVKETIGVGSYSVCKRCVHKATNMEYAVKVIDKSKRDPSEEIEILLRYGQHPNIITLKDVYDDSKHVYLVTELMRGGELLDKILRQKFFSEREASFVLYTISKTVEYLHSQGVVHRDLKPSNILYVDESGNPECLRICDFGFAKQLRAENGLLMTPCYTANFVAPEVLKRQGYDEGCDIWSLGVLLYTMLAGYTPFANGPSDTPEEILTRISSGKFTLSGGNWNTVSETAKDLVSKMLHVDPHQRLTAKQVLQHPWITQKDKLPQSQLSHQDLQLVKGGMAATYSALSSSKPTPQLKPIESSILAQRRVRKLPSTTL

T1 sequence (P51812 whole entry): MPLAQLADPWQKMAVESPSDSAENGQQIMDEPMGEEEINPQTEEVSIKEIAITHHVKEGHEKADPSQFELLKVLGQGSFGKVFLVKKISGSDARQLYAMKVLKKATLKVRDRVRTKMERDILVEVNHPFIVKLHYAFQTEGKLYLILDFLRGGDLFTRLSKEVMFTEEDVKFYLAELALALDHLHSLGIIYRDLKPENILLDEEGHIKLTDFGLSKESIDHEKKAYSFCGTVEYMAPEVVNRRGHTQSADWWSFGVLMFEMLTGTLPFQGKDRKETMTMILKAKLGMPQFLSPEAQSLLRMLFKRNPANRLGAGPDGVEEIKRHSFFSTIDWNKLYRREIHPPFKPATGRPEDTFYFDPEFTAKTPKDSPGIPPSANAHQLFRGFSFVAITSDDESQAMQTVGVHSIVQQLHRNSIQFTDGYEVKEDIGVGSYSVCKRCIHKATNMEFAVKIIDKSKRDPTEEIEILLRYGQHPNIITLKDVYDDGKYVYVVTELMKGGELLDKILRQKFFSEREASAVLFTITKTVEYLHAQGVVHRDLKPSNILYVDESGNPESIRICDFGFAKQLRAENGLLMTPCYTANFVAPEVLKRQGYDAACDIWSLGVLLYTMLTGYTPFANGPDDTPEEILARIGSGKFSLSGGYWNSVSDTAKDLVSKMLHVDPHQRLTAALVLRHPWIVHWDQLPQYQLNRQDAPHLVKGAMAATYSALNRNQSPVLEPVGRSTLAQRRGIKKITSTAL

For `O[C@]12C=C(c3nccc4c3[nH]c3ccccc34)[C@@H]3CCN(CCCC/C=C\CC1)C[C@@]31C[C@@H]3/C=C\CCCCN3[C@H]12` [MZA, Manzamine A], the IC50 [1] was 108 µM and the IC50 [2] was 15 µM.

Source: PMC8467814, “RSK1 vs. RSK2 Inhibitory Activity of the Marine β-Carboline Alkaloid Manzamine A: A Biochemical, Cervical Cancer Protein Expression, and Computational Study” (Marine Drugs, 2021)
